# From patent US20250114355A1, “TREATING LIVER DISEASE” (Mayo Foundation for Medical Education and Research, priority 2021, published 2025)
# “Also recorded” adds a separate entry of the source.
# What was measured:
# [1] = tested on: HHSEC; assay: Colorimetric (XTT) cell viability assay in HHSEC; assay type: cell-based, human; details: for toxicity to HHSEC (ranking): XTT viability, FIG. 33B
# Experimental: Cell viability assay was performed with a XTT Viability Kit (Cell Signaling Technology, 9095) according to the manufacturer's instructions. HHSEC were seeded in three black-walled 96-well plates (Corning, 3603) with cell density≥12,000 cells per well.
# The cells were incubated for 24 hours at 37° C., 5% CO2 in endothelial growth media (Cell Application Inc, 211-500). After 24 hours, old media was removed and 100 μL of fresh media was added to each well. Drugs were dissolved in DMSO; a 1.1 mM stock solution was made by diluting drug in DPBS (11% DMSO, v/v). The 1.1 mM stock was serially diluted with 3-fold dilutions. DMSO volumes were balanced to 11% DMSO (v/v). A multichannel pipette was used to add 10 μL of drug or control stocks simultaneously (i.e., one column per drug per plate). The final maximum concentration of drug was 100 μM. Plates were incubated for 21 hours at 37° C., 5% CO2. After incubation, 50 μL of XTT solution were added to each well and incubated for three hours to maximize differences in signal. Absorbance was measured at 462 and 620 nm with a spectrophotometer (Molecular Devices, Spectramax Plus 384). Background absorbance at 620 nm was subtracted from maximum peak at 462 nm.
# [2] = tested on: alcohol/LPS-induced liver inflammation; assay: Multiple alcohol binge with LPS mouse model; assay type: in vivo, mice; details: UMN627 22 mg/kg IP
# Experimental: (§1) mRNA levels were quantified by real-time reverse transcription PCR. RNA extraction was performed with RNeasy kit (Qiagen 74104) from cells and mouse tissue according to the manufacturer's instructions. RNA Quantification was performed with spectrophotometry (NanoDrop, Thermo Scientific). 500 ng of mRNA was used for cDNA synthesis with dNTP and oligo primer using SuperScript™ III (Invitrogen 18080-093) for reverse transcription per the manufacturer's protocol. Real-Time PCR was performed from cDNA using IQ SYBR Green Mix (Biorad 1725121) on the 7500 Real-Time PCR system (Applied Biosystems), according to the manufacturer's instructions. Amplification of GAPDH and B-actin was performed for respective samples as internal controls. Each experiment was done in duplicates.
# Right lobes of all mouse livers were fixed in 10% formalin and embedded in paraffin and cut into 5 μm sections. Slides were deparaffinized and underwent antigen retrieval (IHC-Tek IW-1000). Slides were treated with hydrogen peroxide for 10 minutes before blocking in 5% bovine serum albumin in phosphate-buffered saline (PBS) for 1 hour at room temperature. Samples were then incubated overnight at 4° C. with rabbit anti-MPO antibody (Abcam ab9535) at 1:25. Slides were then blocked with Avidin and Biotin (Vector SP-2001) for 15 minutes each before treatment with biotinylated secondary antibody horse anti-Rabbit (Vector BA-1100) at 1:200 for 1 hour at room temperature. Slides were then treated with
# ABC reagent (Vector PK-7100) for 30 minutes before treatment with DAB reagent (Vector SK-4100) for 5 minutes. Counterstain was performed with hematoxylin stain and dehydrated in ethanol and xylene. Images were acquired using a Zeiss LSM 780 confocal microscope at 10× magnification, 5 images per slide (Carl Zeiss MicroImaging, Jena, Germany).
# Liver sections from the left lobe of all mouse livers were embedded in OCT (Sakura 4583) and flash frozen. Frozen tissue was sectioned into 10 μm slices, fixed in 10% formalin and stained with BODIPY 493/503 (Invitrogen D3922) or Oil-red (Sigma 00625) and counterstained with 4′,6-diamidino-2-phenylindole (DAPI) (Sigma D9542) or hematoxylin, respectively. Representative images were obtained with microscopy in one session under same settings (Carl Zeiss MicroImaging, Jena, Germany), 3 images per slide. The proportion of tissue stained with BODIPY, or Oil-red content was quantified with ImageJ macro commands for standardization. For BODIPY staining, FITC channel intensity was measured across the whole image, and average intensities of images were normalized to the average of all control samples. For Oil Red staining, red staining was quantified above a pre-selected threshold, and average intensities of images were normalized to the average of all control samples. […]
# [3] = tested on: CXCL chemokine expression in LSECs; assay: CXCL chemokine expression by qPCR in LSECs with or without TNFα stimulation; assay type: cell-based, human; details: LSECs pretreated with inhibitor
# Experimental: LSECs were thawed and cultured according to standard cell culture conditions and according to manufacture instruction (ScienCell). Briefly, LSECs are plated at low confluency and cultured in Endothelial cell medium (Cell 211-500). Fresh medium changed every other day and cells are split when close to confluency. For TNFα stimulation experiments, low passage cells were plated at 70% confluency and cultured overnight. Serum starvation was performed by changing cells to low-serum medium (0.5% FBS in basal endothelial medium (Lonza CC-3121)) for 2 hours. Human TNFα at concentration 10 ng/mL was added to low-serum medium and incubated with cells for 90 minutes before cells were collected and assayed for downstream analysis. […] Inhibitors were added at concentrations indicated to low-serum medium, and cells were incubated in inhibitor containing medium for 2 hours. After inhibitor treatment, medium change was performed with TNFα (Peprotech 300-01A) at 10 ng/ml or control low-serum medium for 90 minutes incubation. LSECs were then collected for analysis.
# mRNA levels were quantified by real-time reverse transcription PCR. RNA extraction was performed with RNeasy kit (Qiagen 74104) from cells and mouse tissue according to the manufacturer's instructions. RNA Quantification was performed with spectrophotometry (NanoDrop, Thermo Scientific). […]
# [4] = target: BRD4 BD1 (Homo sapiens, UniProt O60885); assay: BRD4 BD1 affinity (IC50); assay type: binding; details: ratio of BD2 and BD1 IC50
# [5] = tested on: CXCL1 and CCL2 mRNA expression; assay: Murine LPS model of mild liver inflammation, qPCR of CXCL1 and CCL2 mRNA; assay type: in vivo; details: mice, drug given one hour before LPS; for CCL2 mRNA expression versus LPS control: several doses
# Experimental: as §1, with “BRD4 inhibitors” for “mRNA levels”, “introduced to murine models of mild liver inflammation induced” for “quantified”, “LPS. The BRD4 inhibitors acted as prophylactic agents to prevent the increased expression of CXCL1 and CCL2. […]” for “real-time reverse transcription PCR.”
# [6] = among treatment groups, 22 mg/kg
smiles,measurement,setting,value
CCc1cc(C)cc(Oc2nccc(-c3c(-c4ccc(C(F)(F)F)cc4)ncn3[C@H]3CCN(CCN(C)C)C3)n2)c1 [9-209],toxicity to HHSEC (ranking),[1],least toxic
Cc1cc(C)cc(Nc2nccc(-c3c(-c4ccc(C(F)(F)F)cc4)ncn3C3CCN(CCCN(C)CCNC(=O)CN4CCC(n5nnc(C)c5-c5cccc(Oc6cc(C)cc(C)c6)n5)CC4)CC3)n2)c1 [9-169],EC50,"[1]; Homo sapiens, read-out: EC50, concentration that causes 50% toxicity to HHSEC, XTT, 21 + 3 hours incubation",< 4 µM
Cc1cc(C)cc(Oc2cccc(-c3c(C)nnn3C3CCN(CCN(C)C)CC3)n2)c1 [AC6027],toxicity to HHSEC (ranking),[1],least toxic
Cc1nnn(C2CCN(CCN(C)C)CC2)c1-c1cccc(Oc2cc(Br)ccc2Br)n1 [AC6026],toxicity to HHSEC (ranking),[1],least toxic
CCc1cc(C)cc(Oc2nccc(-c3c(-c4ccc(C(F)(F)F)cc4)ncn3C3CCN(CCN(C)C)CC3)n2)c1 [9-73],toxicity to HHSEC (ranking),[1],least toxic
Cc1cc(C)cc(Nc2nccc(-c3c(-c4ccc(C(F)(F)F)cc4)ncn3C3CCN(CCN)CC3)n2)c1 [UMN627],liver neutrophil infiltration (MPO IHC),[2]; alcohol binges/LPS mice,Attenuated
same,liver CXCL chemokine (and Ly6g) expression by qPCR,"[2]; alcohol binges/LPS mice, 22 mg/kg",attenuated
same,serum ALT levels,[2]; [6],no significant changes; also recorded: did not show statistical difference
same,steatosis (BODIPY 493/503 staining),[2]; [6],no significant changes; also recorded: not significantly correlated
same,CXCL chemokine expression in LSECs,[3],showed efficacy in CXCL suppression
same,affinity for BRD4 BD1 over BRD4 BD2,[4],over 20 fold
same,IC50 for CCL2 mRNA expression,[5],8.8 mg/kg
same,IC50 for CXCL1 mRNA expression,[5],10.9 mg/kg
same,CCL2 mRNA expression versus LPS control,[5],No significant differences were found
Cc1cc(C)cc(Oc2cccc(-c3c(C)nnn3C3CCNCC3)n2)c1 [AC4118],toxicity to HHSEC (ranking),[1],least toxic
same,IC50 for chemokine expression (chemokine not specified),[5],< 5 mg/kg
same,CCL2 mRNA expression versus LPS control,[5],significantly reduced CCL2 expression at higher concentrations compared to UMN627
